Our source for the IC50 values is patent US20210380548A1, “Fused [1,2,4]Thiadiazine Derivatives Which Act as KAT Inhibitors of the MYST Family” (CTxT Pty Limited, priority 2017, published 2021).

Where only a bound is given, the exact number is not on record here.

The target of experiment [1] is T1, MOF-KAT8 (Homo sapiens, UniProt Q9H7Z6).
T1 sequence (Q9H7Z6 177-447): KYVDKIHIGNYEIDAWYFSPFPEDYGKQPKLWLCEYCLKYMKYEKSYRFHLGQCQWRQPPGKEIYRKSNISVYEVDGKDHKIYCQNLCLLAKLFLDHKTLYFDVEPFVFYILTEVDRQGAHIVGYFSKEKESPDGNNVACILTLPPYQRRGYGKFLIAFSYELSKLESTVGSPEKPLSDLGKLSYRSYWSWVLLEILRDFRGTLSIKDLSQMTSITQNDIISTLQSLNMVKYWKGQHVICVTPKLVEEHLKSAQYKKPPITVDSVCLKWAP
As to the kind of experiment: Revised Acetyltransferase Biochemical Assay, KAT8.

Experiment [2] addresses T2, TIP60-KAT5 (Homo sapiens, UniProt Q92993).
T2 construct: encoding amino acid residues 2 to 461 (Uniprot Q92993-2) of human KAT5 isoform; made in house; host or cells: E. coli BL21 DE3
Description: Acetyltransferase biochemical assay (AlphaScreen), KAT5. The settings on record: Table 1 (TIP60-KAT5); 0.4 μM Acetyl coenzyme A, histone H4, 10 nM enzyme. (Alpha assays give light when donor and acceptor beads are brought close together.)

For experiment [3], the target named is T2, TIP60-KAT5. As to the kind of experiment: Revised Acetyltransferase Biochemical Assay, KAT5. The settings on record: 10 nM KAT5, 1 μM AcCoA, 100 nM histone H4, 90 min.
Experiment [4] addresses T3, MOZ-KAT6A (Homo sapiens, UniProt Q92794, A567V).
T3 construct: encoding amino acid residues 507 to 778 (Uniprot Q92794-1) of human KAT6A; made in house; host or cells: E. coli BL21 DE3
As to the kind of experiment: Revised Acetyltransferase Biochemical Assay, KAT6A. To be noted: Table 8 (MOZ-KAT6A), 1 μM Acetyl coenzyme A.

Experiment [5] concerns the target T3, MOZ-KAT6A. Description: Acetyltransferase biochemical assay (AlphaScreen), KAT6A. The settings on record: Table 2 (MOZ-KAT6A); 10 μM Acetyl coenzyme A, histone H3.1, 5 nM enzyme.
Experiment [6] deals with T4, HBO-KAT7 (Homo sapiens, UniProt O95251).
T4 construct: encoding amino acid residues 325 to 611 (Uniprot 095251-1) of human KAT7; made in house; host or cells: E. coli BL21 DE3 RIL
T4 sequence (O95251 with tags, fused parts or gaps): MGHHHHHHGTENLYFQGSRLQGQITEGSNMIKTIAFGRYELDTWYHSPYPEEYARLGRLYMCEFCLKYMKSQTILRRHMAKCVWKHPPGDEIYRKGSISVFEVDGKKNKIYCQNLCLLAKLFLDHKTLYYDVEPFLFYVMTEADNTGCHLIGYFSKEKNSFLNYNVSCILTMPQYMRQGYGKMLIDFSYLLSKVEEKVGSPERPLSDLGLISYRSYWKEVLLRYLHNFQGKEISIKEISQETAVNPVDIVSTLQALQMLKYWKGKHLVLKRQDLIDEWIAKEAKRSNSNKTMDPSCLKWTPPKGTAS
As to the kind of experiment: Revised Acetyltransferase Biochemical Assay, KAT7. To be noted: Table 9 (HBO-KAT7), 1 μM Acetyl coenzyme A.

Experiment [7] addresses T4, HBO-KAT7. Description: Acetyltransferase biochemical assay (AlphaScreen), KAT7. To be noted: Table 3 (HBO-KAT7); 0.4 μM Acetyl coenzyme A, histone H3.1, 40 nM enzyme.
Experiment [8] concerns the target T1, MOF-KAT8. Description: Acetyltransferase biochemical assay (AlphaScreen), KAT8. The settings on record: Table 4 (MOF-KAT8); 0.4 μM Acetyl coenzyme A, histone H4, 20 nM enzyme.

T2 sequence (Q92993 2-461 isoform Q92993-2): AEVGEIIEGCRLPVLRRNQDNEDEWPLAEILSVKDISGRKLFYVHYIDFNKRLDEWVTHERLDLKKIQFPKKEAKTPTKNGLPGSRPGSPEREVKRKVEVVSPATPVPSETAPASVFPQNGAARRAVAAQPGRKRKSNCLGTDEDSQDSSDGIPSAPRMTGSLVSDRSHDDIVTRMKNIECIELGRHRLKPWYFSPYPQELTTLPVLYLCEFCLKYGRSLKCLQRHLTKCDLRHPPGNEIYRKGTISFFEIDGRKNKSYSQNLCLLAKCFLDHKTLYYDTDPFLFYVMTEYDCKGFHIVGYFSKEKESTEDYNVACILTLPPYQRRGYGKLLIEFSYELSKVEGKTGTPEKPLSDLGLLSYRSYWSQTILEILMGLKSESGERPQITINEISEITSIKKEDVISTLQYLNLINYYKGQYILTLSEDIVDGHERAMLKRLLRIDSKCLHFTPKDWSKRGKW
T3 sequence (Q92794 507-778 A567V limits assumed): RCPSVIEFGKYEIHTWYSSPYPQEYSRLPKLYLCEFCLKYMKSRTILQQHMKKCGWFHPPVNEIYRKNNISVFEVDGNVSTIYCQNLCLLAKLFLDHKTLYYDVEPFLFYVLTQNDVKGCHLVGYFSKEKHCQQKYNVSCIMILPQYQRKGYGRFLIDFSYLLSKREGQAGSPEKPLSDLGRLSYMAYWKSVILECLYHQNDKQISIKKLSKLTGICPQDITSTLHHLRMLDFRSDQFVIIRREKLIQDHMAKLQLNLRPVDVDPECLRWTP

Regarding `O=C(NCC(CO)c1ccccc1)C1=Nc2ccccc2S(=O)(=O)N1` (stereo not shown) [Example 2, N-(3-Hydroxy-2-phenylpropyl)-2H-benzo[e][1,2,4]thiadiazine-3-carboxamide 1,1-dioxide], the IC50 against MOF-KAT8 [1] was over 125 µM; against TIP60-KAT5 [2] it was over 125 µM; against TIP60-KAT5 [3] it was 60.7 µM; at MOZ-KAT6A [4], 5.14 µM; at MOZ-KAT6A [5] it was 38.1 µM; against HBO-KAT7 [6] it was 28 µM.
On to `O=C(NCC(CCO)c1ccccc1)C1=Nc2ccccc2S(=O)(=O)N1` (stereo not shown) [Example 3, N-(4-Hydroxy-2-phenylbutyl)-2H-benzo[e][1,2,4]thiadiazine-3-carboxamide 1,1-dioxide], for which the IC50 against MOF-KAT8 [1] is 12.2 µM; on TIP60-KAT5 [2], 96.5 µM; against TIP60-KAT5 [3] it was 99.6 µM; at MOZ-KAT6A [4], 4.95 µM; against MOZ-KAT6A [5], 7.66 µM; against HBO-KAT7 [6] it was 49.9 µM.
As for `COc1ccc2c(c1)S(=O)(=O)NC(C(=O)NCC(c1ccccc1)c1ccccc1)=N2` [Example 19, N-(2,2-diphenylethyl)-7-methoxy-2H-benzo[e][1,2,4]thiadiazine-3-carboxamide 1,1-dioxide], the IC50 against MOF-KAT8 [1] is over 125 µM; against TIP60-KAT5 [2] it was 33.2 µM; on TIP60-KAT5 [3], 14.6 µM; against MOZ-KAT6A [4], 0.27 µM; against MOZ-KAT6A [5], 1.35 µM; at HBO-KAT7 [6] it was 1 µM.
Regarding `COC(=O)c1ccc2c(c1)S(=O)(=O)NC(C(=O)NCC(c1ccccc1)c1ccccc1)=N2` [Example 20], the IC50 at MOF-KAT8 [1] was found to be 62.8 µM; against TIP60-KAT5 [2], 29.5 µM; against TIP60-KAT5 [3] it was 13.8 µM; against MOZ-KAT6A [4] it was 0.49 µM; on MOZ-KAT6A [5], 6.05 µM; at HBO-KAT7 [6], 1.25 µM.
Take `CC(=O)c1ccc2c(c1)S(=O)(=O)NC(C(=O)NCC(c1ccccc1)c1ncco1)=N2` (stereo not shown) [Example 43, 7-acetyl-N-(2-(oxazol-2-yl)-2-phenylethyl)-2H-benzo[e][1,2,4]thiadiazine-3-carboxamide 1,1-dioxide]: the IC50 turned out to be 1.99 µM against HBO-KAT7 [7]; 71.6 µM at MOF-KAT8 [1]; 2.39 µM against TIP60-KAT5 [2]; 0.266 µM at TIP60-KAT5 [3]; 0.014 µM at MOZ-KAT6A [4]; 0.243 µM against MOZ-KAT6A [5]. The same molecule returned an IC50 on HBO-KAT7 [6] of 0.086 µM.
For the molecule `O=C(NCC(c1ccccc1)c1nc(CO)no1)C1=Nc2ccc(I)cc2S(=O)(=O)N1` (stereo not shown) [Example 59, N-(2-(3-(hydroxymethyl)-1,2,4-oxadiazol-5-yl)-2-phenylethyl)-7-iodo-2H-benzo[e][1,2,4]thiadiazine-3-carboxamide 1,1-dioxide], the IC50 on MOF-KAT8 [1] amounted to 26.8 µM; against TIP60-KAT5 [3], 0.721 µM; against MOZ-KAT6A [4], 0.032 µM; at HBO-KAT7 [6] it was 0.403 µM.
`O=C(NCC(c1ccccc1)c1ccccc1)C1=Nc2ccccc2S(=O)(=O)N1` [Example 68]: the IC50 was determined as 0.462 µM at HBO-KAT7 [7]; 16.5 µM at MOF-KAT8 [1]; 14.5 µM against TIP60-KAT5 [2]; 7.21 µM at TIP60-KAT5 [3]; 0.108 µM against MOZ-KAT6A [4]; 3.81 µM at MOZ-KAT6A [5]. Also, inhibition on HBO-KAT7 [6] was half-maximal at 0.601 µM (IC50).
For `O=C(NCC(c1ccccc1)n1cccn1)C1=Nc2ccccc2S(=O)(=O)N1` (stereo not shown) [Example 75], the IC50 against MOF-KAT8 [1] is over 125 µM; at TIP60-KAT5 [2], 56.6 µM; against TIP60-KAT5 [3], 14.1 µM; against MOZ-KAT6A [4] it was 0.308 µM; against MOZ-KAT6A [5] it was 1.72 µM; against HBO-KAT7 [6], 1.15 µM.
On to `O=C(NCCc1ccccc1)C1=Nc2ccc(Br)cc2S(=O)(=O)N1` [Example 78], for which the IC50 against HBO-KAT7 [7] is 4.56 µM; at MOF-KAT8 [1], over 125 µM; against TIP60-KAT5 [2], 16.7 µM; against TIP60-KAT5 [3] it was 4.54 µM; on MOZ-KAT6A [4], 0.203 µM; at MOZ-KAT6A [5], 3.74 µM. Moreover, at HBO-KAT7 [6], the IC50 was 3.53 µM.
Turning to `O=C(NCC(c1ccccc1)c1ncco1)C1=Nc2cccnc2S(=O)(=O)N1` (stereo not shown) [Example 96], the IC50 on HBO-KAT7 [7] was 3.17 µM; on MOF-KAT8 [1] it was over 125 µM; against TIP60-KAT5 [2], 94.7 µM; against TIP60-KAT5 [3], 13.3 µM; against MOZ-KAT6A [4], 0.149 µM; on MOZ-KAT6A [5] it was 1.17 µM. At HBO-KAT7 [6], this molecule showed an IC50 of 1.11 µM.
As for `O=C(NCCc1ccccc1C(F)(F)F)C1=Nc2ccc(I)cc2S(=O)(=O)N1` [Example 118], the concentration for half-maximal inhibition (IC50) against HBO-KAT7 [7] is 3.02 µM; against MOF-KAT8 [1], over 125 µM; at TIP60-KAT5 [2], 2.29 µM; at TIP60-KAT5 [3], 0.208 µM; against MOZ-KAT6A [4] it was 0.046 µM; at HBO-KAT7 [6], 0.412 µM.
For the molecule `O=C(NCC(c1ccccc1)c1ncco1)C1=Nc2ccc(C(F)(F)F)cc2S(=O)(=O)N1` (stereo not shown) [Example 120], the IC50 against HBO-KAT7 [7] is 3.52 µM; at MOF-KAT8 [1] it was 41.5 µM; on TIP60-KAT5 [2], 1.24 µM; against TIP60-KAT5 [3] it was 0.224 µM; against MOZ-KAT6A [4] it was 0.017 µM; against HBO-KAT7 [6] it was 0.14 µM.
As for `COC(=O)NC(CNC(=O)C1=Nc2ccccc2S(=O)(=O)N1)c1ccccc1` (stereo not shown) [Example 129], the IC50 at HBO-KAT7 [7] is over 125 µM; at MOF-KAT8 [1], over 125 µM; against TIP60-KAT5 [2] it was over 125 µM; against TIP60-KAT5 [3] it was 58.3 µM; against MOZ-KAT6A [4], 0.25 µM; on HBO-KAT7 [6], 24.8 µM.
With `O=C(NCC(c1ccccc1)c1ncco1)C1=Nc2ccc(-c3nccs3)cc2S(=O)(=O)N1` (stereo not shown) [Example 134], the IC50 was 3.32 µM against HBO-KAT7 [7]; 15.7 µM on MOF-KAT8 [1]; 2.17 µM against TIP60-KAT5 [2]; 0.648 µM at TIP60-KAT5 [3]; 0.024 µM on MOZ-KAT6A [4]; 0.149 µM at MOZ-KAT6A [5]. Moreover, on HBO-KAT7 [6], the IC50 came out at 0.72 µM.
In the case of `CS(=O)(=O)Nc1ccc2c(c1)S(=O)(=O)NC(C(=O)NCC(c1ccccc1)c1ncco1)=N2` (stereo not shown) [Example 153, 7-(Methylsulfonamido)-N-(2-(oxazol-2-yl)-2-phenylethyl)-2H-benzo[e][1,2,4]thiadiazine-3-carboxamide 1,1-dioxide], the IC50 on HBO-KAT7 [7] amounted to 3.41 µM; against MOF-KAT8 [1], 20.1 µM; against TIP60-KAT5 [2], 38.7 µM; against TIP60-KAT5 [3], 3.37 µM; at MOZ-KAT6A [4], 0.054 µM; at HBO-KAT7 [6] it was 0.672 µM.
Take `O=C(NCC(c1ncco1)c1ccccc1CO)C1=Nc2ccccc2S(=O)(=O)N1` (stereo not shown) [Example 157]: the IC50 against MOF-KAT8 [1] is over 125 µM; on TIP60-KAT5 [3] it was over 125 µM; at MOZ-KAT6A [4], 8.8 µM; against HBO-KAT7 [6] it was 22.3 µM.
`O=C(NCC(c1cccc(-c2ccccc2)c1)c1ncco1)C1=Nc2ccccc2S(=O)(=O)N1` (stereo not shown) [Example 158]: the IC50 on MOF-KAT8 [1] was determined as 30.7 µM; against TIP60-KAT5 [3] it was 26.8 µM; against MOZ-KAT6A [4], 1.73 µM; at HBO-KAT7 [6], 5.46 µM.
For `O=C(NCC(c1cccc(I)c1)c1ncco1)C1=Nc2ccccc2S(=O)(=O)N1` (stereo not shown) [Example 160, N-(2-(3-iodophenyl)-2-(oxazol-2-yl)ethyl)-2H-benzo[e][1,2,4]thiadiazine-3-carboxamide 1,1-dioxide] the same measures were 4.89 µM, 13.2 µM, 0.471 µM and 1.66 µM.
For `O=C(NCC(c1ncco1)c1ccccc1-c1ccccc1)C1=Nc2ccccc2S(=O)(=O)N1` (stereo not shown) [Example 161], the IC50 was determined as 23 µM on MOF-KAT8 [1], 9.16 µM against TIP60-KAT5 [3], 0.269 µM against MOZ-KAT6A [4] and 4.39 µM at HBO-KAT7 [6].
As for `N#Cc1cccc(C(CNC(=O)C2=Nc3ccccc3S(=O)(=O)N2)c2ncco2)c1` (stereo not shown) [Example 227, N-(2-(3-Cyanophenyl)-2-(oxazol-2-yl)ethyl)-2H-benzo[e][1,2,4]thiadiazine-3-carboxamide 1,1-dioxide], the IC50 against MOF-KAT8 [1] was over 125 µM; on TIP60-KAT5 [3], 98.7 µM; against MOZ-KAT6A [4], 1.36 µM; against HBO-KAT7 [6] it was 4.49 µM.
For `O=C(NCC(F)(F)c1ccccc1OC(F)F)C1=Nc2ccc(Cl)cc2S(=O)(=O)N1` [Example 232, 7-chloro-N-(2-(2-(difluoromethoxy)phenyl)-2,2-difluoroethyl)-2H-benzo[e][1,2,4]thiadiazine-3-carboxamide 1,1-dioxide] the same measures were 35 µM, 2.74 µM, 0.252 µM and 0.393 µM.
For `COC(=O)NC(CNC(=O)C1=Nc2ccccc2S(=O)(=O)N1)C1CCCCC1` (stereo not shown) [Example 243, methyl (1-cyclohexyl-2-(1,1-dioxido-2H-benzo[e][1,2,4]thiadiazine-3-carboxamido)ethyl)carbamate], the IC50 stood at 39.9 µM at TIP60-KAT5 [3], 82.5 µM on MOF-KAT8 [8], 12.3 µM against MOZ-KAT6A [4] and 77.3 µM against HBO-KAT7 [6].

Broadly, the IC50 is the concentration needed to halve the response being measured. Higher therefore signals a need for much substance.
